Assay results published in patent publication US10941158B2, “Pyrazole ACC inhibitors and uses thereof” (Gilead Apollo, LLC, priority 2015, dated 2021).
≈ marks a conversion by molar mass, not a printed value. Where two headings read alike, the source gives them in different places.

Key:
[1] = target: human (hACC2) ACC2 (Homo sapiens, UniProt O00763); assay: In vitro Acetyl-CoA Carboxylase (ACC) inhibition assay (ADP-Glo), hACC2; assay type: biochemical
Experimental: The detailed procedure is as follows. […] 10 μL ADP glo reagent was added. […] 20 μL kinase detection reagent was added.
“NA” stands for “not assayed.”

[2] = tested on: C. albicans ATCC 90028; assay: Anti-Fungal (Candida) Activity Assay, broth microtiter MIC; assay type: cell-based; details: read-out: MIC C. albicans ATCC 90028
In short: (§1)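 Broth microdilution per CLSI M27-A3 in RPMI 1640 + MOPS, with inocula from colonies grown 24 h at 35 °C on Sabouraud dextrose agar and set by standard curve. Compounds came from 1 mg/mL DMSO stocks. MIC was read visually against the growth control at 48 h.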

[3] = tested on: C. krusei ATCC 6258; assay: as above; assay type: cell-based; details: Pichia kudriavzevii, read-out: MIC C. krusei ATCC 6258
In short: as §1

[4] = tested on: C. parapsilosis ATCC 22019; assay: as above; assay type: cell-based; details: Lodderomyces parapsilosis, read-out: MIC C. parapsilosis ATCC 22019
In short: as §1

[5] = tested on: Botrtyis cinerea (Bc); assay: Growth inhibition assay of fungal pathogens; assay type: cell-based; details: 48 h, read-out: Concentration at 90% Inhibition Bc
In short: (§2)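 Spores of Fm, Bc and Dm were suspended in 17% V8 liquid medium, while Rs was inoculated as 1.5 mm mycelial plugs in ¼ PDB. Compounds were tested at final 50, 10 and 2 ppm or 2, 0.4 and 0.08 ppm. Percent growth inhibition at 48 h versus 2% DMSO came from OD600 and visual ratings.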

[6] = tested on: Collectotrichum graminicola (Cg); assay: Growth inhibition assay of fungal pathogens; assay type: cell-based; details: 48 h, read-out: Concentration at 90% Inhibition Cg
In short: (§3)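 Percent growth inhibition was derived from 48 h OD600 and visual scores relative to 2% DMSO, with blank background subtraction. Fungi were grown from spores in 17% V8 liquid medium, R. solani from 1.5 mm plugs in ¼ PDB, with compound at final 50/10/2 or 2/0.4/0.08 ppm.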

[7] = tested on: Diplodia maydis (Dm); assay: Growth inhibition assay of fungal pathogens; assay type: cell-based; details: Stenocarpella maydis, 48 h, read-out: Concentration at 90% Inhibition Dm
In short: as §2

[8] = tested on: Fusarium moniliforme (Fm); assay: Growth inhibition assay of fungal pathogens; assay type: cell-based; details: Fusarium verticillioides, 48 h, 48 hours, read-out: Concentration at 90% Inhibition Fm
In short: as §2

[9] = tested on: Fusarium virguliforme (Fv); assay: Growth inhibition assay of fungal pathogens; assay type: cell-based; details: 48 h, 48 hours, read-out: Concentration at 90% Inhibition Fv
In short: as §3

[10] = tested on: Phytophthora capsici (Pc); assay: Growth inhibition assay of fungal pathogens; assay type: cell-based; details: 48 hours
In short: as §3

[11] = tested on: Rhizoctonia solani (Rs); assay: Growth inhibition assay of fungal pathogens; assay type: cell-based; details: 48 h, read-out: Concentration at 90% Inhibition Rs
In short: as §2

[12] = tested on: Septoria tritici (St); assay: Growth inhibition assay of fungal pathogens; assay type: cell-based; details: 48 hours
In short: as §3

[13] = target: fungal (fACC2) ACC2 (UniProt Q00955); details: read-out: fACC2 IC50; fungal ACC2, ADP-Glo
[14] = ATCC90028, 3 replicates, MIC recorded at 48 h
[15] = ATCC6258, 3 replicates, MIC recorded at 48 h
[16] = ATCC22019, 3 replicates, MIC recorded at 48 h

Chain of fungal (fACC2) ACC2 (Q00955 whole entry): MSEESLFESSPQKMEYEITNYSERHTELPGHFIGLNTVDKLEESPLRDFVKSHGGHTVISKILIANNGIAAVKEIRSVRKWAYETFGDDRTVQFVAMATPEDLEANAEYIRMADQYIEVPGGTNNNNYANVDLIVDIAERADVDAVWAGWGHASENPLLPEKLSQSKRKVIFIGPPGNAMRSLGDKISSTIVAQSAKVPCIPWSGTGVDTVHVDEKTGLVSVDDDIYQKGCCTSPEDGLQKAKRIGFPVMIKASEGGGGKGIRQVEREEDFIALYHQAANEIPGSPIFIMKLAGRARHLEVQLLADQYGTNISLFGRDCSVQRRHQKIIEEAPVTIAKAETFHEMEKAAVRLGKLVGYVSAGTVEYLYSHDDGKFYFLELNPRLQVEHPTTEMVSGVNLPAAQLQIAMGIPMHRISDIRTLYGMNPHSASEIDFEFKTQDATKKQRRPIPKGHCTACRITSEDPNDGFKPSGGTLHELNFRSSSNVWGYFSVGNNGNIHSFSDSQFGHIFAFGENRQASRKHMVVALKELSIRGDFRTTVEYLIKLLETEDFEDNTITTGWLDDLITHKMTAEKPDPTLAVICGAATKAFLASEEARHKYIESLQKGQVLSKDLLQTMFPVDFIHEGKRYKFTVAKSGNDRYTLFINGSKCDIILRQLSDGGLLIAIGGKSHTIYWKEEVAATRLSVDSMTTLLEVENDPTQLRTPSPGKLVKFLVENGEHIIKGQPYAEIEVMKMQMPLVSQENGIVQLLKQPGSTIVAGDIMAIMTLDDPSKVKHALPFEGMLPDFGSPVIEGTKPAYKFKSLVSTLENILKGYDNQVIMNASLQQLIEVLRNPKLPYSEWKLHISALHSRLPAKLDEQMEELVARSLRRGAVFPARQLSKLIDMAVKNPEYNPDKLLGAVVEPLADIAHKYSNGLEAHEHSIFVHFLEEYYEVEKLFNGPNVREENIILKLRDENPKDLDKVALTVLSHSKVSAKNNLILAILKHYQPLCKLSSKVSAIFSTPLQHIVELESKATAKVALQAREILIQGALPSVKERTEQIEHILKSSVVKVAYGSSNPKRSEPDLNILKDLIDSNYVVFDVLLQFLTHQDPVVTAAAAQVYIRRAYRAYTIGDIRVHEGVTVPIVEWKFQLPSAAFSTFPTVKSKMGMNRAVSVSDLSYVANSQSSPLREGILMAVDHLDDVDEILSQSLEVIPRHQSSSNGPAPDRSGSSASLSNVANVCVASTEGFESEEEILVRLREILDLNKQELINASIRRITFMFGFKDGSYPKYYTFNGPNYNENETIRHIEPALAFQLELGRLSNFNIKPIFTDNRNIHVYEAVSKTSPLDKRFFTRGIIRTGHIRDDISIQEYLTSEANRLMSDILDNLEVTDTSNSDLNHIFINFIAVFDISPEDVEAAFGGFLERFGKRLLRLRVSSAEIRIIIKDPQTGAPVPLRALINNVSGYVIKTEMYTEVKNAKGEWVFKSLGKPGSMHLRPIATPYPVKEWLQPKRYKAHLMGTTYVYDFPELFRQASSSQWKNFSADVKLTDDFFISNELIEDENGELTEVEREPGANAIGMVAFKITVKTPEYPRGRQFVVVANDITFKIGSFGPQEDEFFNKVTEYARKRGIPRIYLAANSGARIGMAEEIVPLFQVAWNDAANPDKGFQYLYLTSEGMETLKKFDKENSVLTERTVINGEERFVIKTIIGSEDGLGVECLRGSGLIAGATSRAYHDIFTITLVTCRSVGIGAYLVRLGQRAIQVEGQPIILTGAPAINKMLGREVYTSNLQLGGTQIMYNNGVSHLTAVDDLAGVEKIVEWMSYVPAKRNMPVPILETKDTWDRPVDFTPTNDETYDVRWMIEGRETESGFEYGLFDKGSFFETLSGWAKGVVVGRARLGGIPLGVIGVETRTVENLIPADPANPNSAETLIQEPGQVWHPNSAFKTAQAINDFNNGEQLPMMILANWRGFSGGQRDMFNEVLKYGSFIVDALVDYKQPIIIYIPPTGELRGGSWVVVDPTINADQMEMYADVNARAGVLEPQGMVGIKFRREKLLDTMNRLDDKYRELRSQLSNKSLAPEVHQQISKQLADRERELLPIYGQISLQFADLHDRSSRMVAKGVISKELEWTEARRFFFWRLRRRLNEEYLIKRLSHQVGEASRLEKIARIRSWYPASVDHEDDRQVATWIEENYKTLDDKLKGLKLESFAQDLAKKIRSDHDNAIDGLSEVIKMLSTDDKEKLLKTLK
Chain of human (hACC2) ACC2 (O00763 whole entry): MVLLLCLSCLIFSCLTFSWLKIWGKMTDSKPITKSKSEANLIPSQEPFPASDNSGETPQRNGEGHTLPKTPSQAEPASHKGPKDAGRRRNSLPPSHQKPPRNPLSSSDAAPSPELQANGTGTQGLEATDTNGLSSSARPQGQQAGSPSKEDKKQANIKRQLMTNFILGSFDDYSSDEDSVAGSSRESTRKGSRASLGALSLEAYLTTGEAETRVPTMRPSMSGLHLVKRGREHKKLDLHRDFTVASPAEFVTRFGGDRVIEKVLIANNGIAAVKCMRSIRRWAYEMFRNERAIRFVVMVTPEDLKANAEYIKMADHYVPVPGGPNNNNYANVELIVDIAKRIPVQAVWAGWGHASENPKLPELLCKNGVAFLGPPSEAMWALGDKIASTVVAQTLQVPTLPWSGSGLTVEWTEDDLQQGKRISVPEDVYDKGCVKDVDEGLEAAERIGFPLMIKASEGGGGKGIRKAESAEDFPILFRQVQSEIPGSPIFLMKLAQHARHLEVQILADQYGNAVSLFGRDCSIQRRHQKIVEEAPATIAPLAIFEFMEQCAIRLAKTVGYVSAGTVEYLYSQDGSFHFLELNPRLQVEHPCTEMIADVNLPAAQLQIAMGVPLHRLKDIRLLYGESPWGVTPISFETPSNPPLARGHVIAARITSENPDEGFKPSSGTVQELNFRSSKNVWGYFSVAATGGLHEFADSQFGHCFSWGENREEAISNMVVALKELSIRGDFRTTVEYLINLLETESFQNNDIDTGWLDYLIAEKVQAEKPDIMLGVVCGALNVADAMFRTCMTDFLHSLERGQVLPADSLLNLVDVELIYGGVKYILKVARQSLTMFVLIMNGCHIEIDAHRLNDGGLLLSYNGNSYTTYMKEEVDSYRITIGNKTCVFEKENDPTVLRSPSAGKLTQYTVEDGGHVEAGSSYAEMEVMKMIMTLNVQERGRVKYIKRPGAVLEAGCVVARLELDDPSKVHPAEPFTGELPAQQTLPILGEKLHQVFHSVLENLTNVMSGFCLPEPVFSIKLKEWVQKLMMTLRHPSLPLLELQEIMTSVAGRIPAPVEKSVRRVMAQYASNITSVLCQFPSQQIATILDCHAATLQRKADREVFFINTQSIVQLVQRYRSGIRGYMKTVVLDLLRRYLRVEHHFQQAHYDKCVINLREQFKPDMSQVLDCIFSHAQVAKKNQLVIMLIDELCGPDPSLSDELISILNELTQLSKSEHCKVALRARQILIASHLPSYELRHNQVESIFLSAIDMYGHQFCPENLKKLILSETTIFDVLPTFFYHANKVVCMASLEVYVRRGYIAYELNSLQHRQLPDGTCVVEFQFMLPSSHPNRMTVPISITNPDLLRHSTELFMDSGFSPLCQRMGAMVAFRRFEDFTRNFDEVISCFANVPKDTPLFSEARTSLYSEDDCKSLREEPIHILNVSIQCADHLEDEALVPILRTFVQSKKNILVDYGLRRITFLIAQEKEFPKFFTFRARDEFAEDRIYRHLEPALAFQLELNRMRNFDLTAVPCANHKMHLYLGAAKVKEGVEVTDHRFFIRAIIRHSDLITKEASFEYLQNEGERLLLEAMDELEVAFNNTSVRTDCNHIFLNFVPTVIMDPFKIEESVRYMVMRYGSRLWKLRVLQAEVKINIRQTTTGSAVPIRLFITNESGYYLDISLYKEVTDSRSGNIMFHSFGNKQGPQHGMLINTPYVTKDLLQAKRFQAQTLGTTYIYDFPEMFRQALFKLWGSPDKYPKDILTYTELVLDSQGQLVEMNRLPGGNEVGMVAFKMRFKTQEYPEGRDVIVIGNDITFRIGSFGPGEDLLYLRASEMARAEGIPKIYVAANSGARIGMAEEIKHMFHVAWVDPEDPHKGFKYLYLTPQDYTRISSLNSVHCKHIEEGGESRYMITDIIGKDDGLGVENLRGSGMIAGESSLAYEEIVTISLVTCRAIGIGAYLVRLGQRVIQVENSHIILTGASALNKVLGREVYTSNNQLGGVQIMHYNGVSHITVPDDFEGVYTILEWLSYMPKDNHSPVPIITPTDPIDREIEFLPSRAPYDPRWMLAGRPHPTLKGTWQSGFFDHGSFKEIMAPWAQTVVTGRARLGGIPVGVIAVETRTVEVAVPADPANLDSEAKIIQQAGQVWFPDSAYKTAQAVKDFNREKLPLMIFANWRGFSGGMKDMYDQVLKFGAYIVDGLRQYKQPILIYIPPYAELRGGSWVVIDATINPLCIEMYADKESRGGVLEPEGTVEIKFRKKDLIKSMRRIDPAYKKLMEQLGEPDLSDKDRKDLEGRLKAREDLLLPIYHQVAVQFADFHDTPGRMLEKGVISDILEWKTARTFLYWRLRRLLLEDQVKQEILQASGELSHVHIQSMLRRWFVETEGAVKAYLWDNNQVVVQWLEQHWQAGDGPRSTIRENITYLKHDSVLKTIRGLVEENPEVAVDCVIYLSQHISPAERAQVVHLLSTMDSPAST

Compound	IC50 [1] [nM]	MIC [2, 14] [µg/mL]	MIC [3, 15] [µg/mL]	MIC [4, 16] [µg/mL]	IC50 [13] [nM]	other results
COc1ccc(F)cc1[C@H](Cn1c(=O)n(C(C)(C)C(=O)NC(C)C)c(=O)c2c(C)c(-n3cccn3)sc21)OC(C)C.I [Compound I-1, (R)-2-(I-(2-(5-fluoro-2-methoxyphenyl)-2-isopropoxyethyl)-5-methyl-2,4-dioxo-6-(1H-pyrazol-1-yl)-1,4-dihydrothieno[2,3-d]pyrimidin-3(2H)-yl)-N-isopropyl-2-methylpropanamide]	10 to 40	2.1 to 4	0.25 to 1	2.1 to 4	0.6 to 3	IC90 ([5]; Table 4a): 0.4 µg/mL; IC90 ([5]; Table 4b): 0.4 µg/mL; IC90 ([6]; Table 4a): 2 µg/mL; IC90 ([6]; Table 4b): 2 µg/mL; IC90 ([7]; Table 4a): 2 µg/mL; IC90 ([7]; Table 4b): 2 µg/mL; IC90 ([8]; Table 4a): 0.08 µg/mL; IC90 ([8]; Table 4b): 0.08 µg/mL; IC90 ([9]; Table 4a): 0.4 µg/mL; IC90 ([9]; Table 4b): 0.4 µg/mL; IC90 ([10]; Phytophthora capsici, Table 4a, read-out: Concentration at 90% Inhibition Pc): > 50 µg/mL; Concentration at 90% Inhibition Pc ([10]; Table 4b): D (“D” provided a compound concentration of >50 ppm at 90% inhibition of fungal pathogens); IC90 ([11]; Table 4a): 2 µg/mL; IC90 ([11]; Table 4b): 2 µg/mL; Concentration at 90% Inhibition St ([12]; Table 4b): D (“D” provided a compound concentration of >50 ppm at 90% inhibition of fungal pathogens); IC90 ([12]; Zymoseptoria tritici, Table 4a, read-out: Concentration at 90% Inhibition St): > 50 µg/mL
COc1ccc(F)cc1[C@H](Cn1c(=O)n(C(C)C(N)=O)c(=O)c2c(C)c(-n3cccn3)sc21)OCCO (stereo partly shown) [Compound I-61]	10 to 40	> 4.1	> 4.1	> 4.1	0.6 to 3	–
COc1ccc(F)cc1[C@H](Cn1c(=O)n(C(C)C(=O)O)c(=O)c2c(C)c(-n3cccn3)sc21)OCC(C)(C)O (stereo partly shown) [Compound I-62]	3 to 10	> 4.1	> 4.1	> 4.1	0.6 to 3	–
COCCOc1ccc(F)cc1[C@H](Cn1c(=O)n(C(C)(C)C(N)=O)c(=O)c2c(C)c(-n3cccn3)sc21)OC(C)C [Compound I-63]	3 to 10	> 4.1	> 4.1	> 4.1	0.6 to 3	–
COCCOc1ccc(F)cc1[C@H](Cn1c(=O)n(C(C)(C)C(=O)O)c(=O)c2c(C)c(-n3cccn3)sc21)OC(C)C [Compound I-64]	3 to 10	> 4.1	> 4.1	> 4.1	0.6 to 3	–
COc1ccc(F)cc1[C@H](Cn1c(=O)n(C(C)C(=O)O)c(=O)c2c(C)c(-n3cccn3)sc21)OCC(C)=O (stereo partly shown) [Compound I-65]	10 to 40	> 4.1	> 4.1	> 4.1	3 to 10	–
COc1ccc(F)cc1[C@H](Cn1c(=O)n(C(C)C(=O)N2CCCC2)c(=O)c2c(C)c(-n3cccn3)sc21)OCC(C)(C)O (stereo partly shown) [Compound I-66]	10 to 40	> 4.1	> 4.1	> 4.1	0.6 to 3	–
COc1ccc(F)cc1[C@H](Cn1c(=O)n(C(C)C(=O)NC(C)C)c(=O)c2c(C)c(-n3cccn3)sc21)OCC(C)(C)O (stereo partly shown) [Compound I-67]	10 to 40	> 4.1	> 4.1	> 4.1	0.6 to 3	–
COc1ccc(F)cc1[C@H](Cn1c(=O)n(C(C)C(N)=O)c(=O)c2c(C)c(-n3cccn3)sc21)OCC(C)(C)O (stereo partly shown) [Compound I-68]	10 to 40	> 4.1	> 4.1	> 4.1	0.6 to 3	–
COCCCO[C@@H](Cn1c(=O)n(C(C)C(=O)NC(C)C)c(=O)c2c(C)c(-n3cccn3)sc21)c1cc(F)ccc1OC (stereo partly shown) [Compound I-69]	10 to 40	> 4.1	> 4.1	> 4.1	0.6 to 3	–
COCCCO[C@@H](Cn1c(=O)n(C(C)C(=O)N2CCCC2)c(=O)c2c(C)c(-n3cccn3)sc21)c1cc(F)ccc1OC (stereo partly shown) [Compound I-70]	10 to 40	> 4.1	> 4.1	> 4.1	0.6 to 3	–
COc1ccccc1[C@H](Cn1c(=O)n(C(C)(C)C(=O)O)c(=O)c2c(C)c(-n3cccn3)sc21)OC1CCOCC1 [Compound I-71]	10 to 40	> 4.1	> 4.1	> 4.1	0.6 to 3	–
COc1ccccc1[C@H](Cn1c(=O)n(C(C)(C)C(=O)O)c(=O)c2c(C)c(-n3cccn3)sc21)O[C@H]1CC[C@@H](O)CC1 [Compound I-72]	3 to 10	> 4.1	> 4.1	> 4.1	0.6 to 3	–
COCCO[C@@H](Cn1c(=O)n([C@@H](C)C(=O)NC(C)C)c(=O)c2c(C)c(-n3cccn3)sc21)c1cc(F)ccc1OC [Compound I-73, (S)-2-(1-((R)-2-(5-fluoro-2-methoxyphenyl)-2-(2-methoxy-ethoxy)ethyl)-5-methyl-2,4-dioxo-6-(1H-pyrazol-1-yl)-1,4-dihydrothieno[2,3-d]pyrimidin-3(2H)-yl)-N-isopropylpropanamide]	3 to 10	2.1 to 4 (≈ 3.57 to 6.81 µM)	> 4.1	2.1 to 4 (≈ 3.57 to 6.81 µM)	0.6 to 3	–
COCCO[C@@H](Cn1c(=O)n([C@H](C)C(=O)NC(C)C)c(=O)c2c(C)c(-n3cccn3)sc21)c1cc(F)ccc1OC [Compound I-74, (R)-2-(1-((R)-2-(5-fluoro-2-methoxyphenyl)-2-(2-methoxy-ethoxy)ethyl)-5-methyl-2,4-dioxo-6-(1H-pyrazol-1-yl)-1,4-dihydrothieno[2,3-d]pyrimidin-3(2H)-yl)-N-isopropylpropanamide]	> 40	> 4.1	> 4.1	> 4.1	10 to 40	–
COc1ccccc1[C@H](Cn1c(=O)n(C(C)(C)C(=O)NC(C)C)c(=O)c2c(C)c(-n3cccn3)sc21)OCCC#N [Compound I-80, (R)-2-(1-(2-(2-cyanoethoxy)-2-(2-methoxyphenyl)ethyl)-5-methyl-2,4-dioxo-6-(1H-pyrazol-1-yl)-1,4-dihydrothieno[2,3-d]pyrimidin-3(2H)-yl)-N-isopropyl-2-methylpropanamide]	10 to 40	–	–	–	3 to 10	MIC ([2]; ATCC90028, 48 h): > 4.1 µg/mL; MIC ([3]; ATCC6258, 48 h): > 4.1 µg/mL; MIC ([4]; ATCC22019, 48 h): > 4.1 µg/mL
COc1ccccc1[C@H](Cn1c(=O)n(C(C)(C)C(N)=O)c(=O)c2c(C)c(-n3cccn3)sc21)OCCC#N [Compound I-83]	10 to 40	> 4.1	> 4.1	> 4.1	3 to 10	–
COc1ccccc1[C@H](Cn1c(=O)n(C(C)(C)C(=O)N2CCCC2)c(=O)c2c(C)c(-n3cccn3)sc21)OCCC#N [Compound I-84, (R)-3-(I-(2-methoxyphenyl)-2-(5-methyl-3-(2-methyl-1-oxo-1-(pyrrolidin-1-yl)propan-2-yl)-2,4-dioxo-6-(1H-pyrazol-1-yl)-3,4-dihydrothieno[2,3-d]pyrimidin-1(2H)-yl)ethoxy)propanenitrile]	10 to 40	> 4.1	> 4.1	> 4.1	0.6 to 3	–
